In PMC9182007, “Statistical Methods in the Study of Protein Binding and Its Relationship to Drug Bioavailability in Breast Milk” (Molecules, 2022):
Like-named read-outs stand apart in the source and are kept apart here.

Assays:
[1] = biological target: T1, bovine serum albumin (BSA) (Bos taurus, UniProt P02769); test: NP TLC on plates impregnated with bovine serum albumin; assay type: binding; settings: Table S3, NP plate impregnated with 2 mg/mL BSA; pH 7.4 mobile phase
T1 construct: purchased Sigma Aldrich
Description: (§1) Chromatographic descriptors were obtained in experiments, thin layer chromatography in normal (NP TLC) and reversed mode (RP TLC). The stationary phase was modified with bovine serum albumin (BSA). TLC was the source of retention factor (Rf) values, denoted in statistical models as NP and RP.
(§2) For TLC chromatography, glass plates 20 × 20 cm from Merck, covered with silica gel with the addition of a fluorescent indicator, were used. Normal phase (NP) plates were used with standard Merck TLC Silica gel 60 F254 plates, while in reverse phase (RP) silanized plates RP-2: Merck TLC Silica gel 60 RP-2 F254 were used.
(§3) The stationary phase of the plates, both NP and RP, was modified with an aqueous solution of bovine serum albumin purchased from Sigma Aldrich (bovine serum albumin, lyophilized powder).
(§4) The impregnation of the plates was carried out with a 2 mg/mL solution applied to the surface using a Desaga SG 1 hand sprayer; the plates were then air dried. […] Normal and reversed phase thin layer chromatography (NP TLC and RP TLC respectively) was performed using silica-gel-coated glass plates. Half of them were covered with 2 mg/mL bovine serum albumin solution and half remained pure.
(§5) The mobility of the compounds was also determined on the plates with no protein as a modifier. […] The acetate buffer (20 mM) was prepared by dissolving 1.54 g of ammonium acetate in 1 L of distilled water. The pH was then adjusted with a concentrated ammonia solution using a pH meter. The plates were developed in standard, vertical chromatographic chambers, each time using 100 mL of the mobile phase, after the chamber was previously saturated with solvent vapors for approximately 1 h.
(§6) The unfolded-protein-impregnated plates and the control plates were scanned with a Desaga CD 60 densitometer. The values of the delay factor (Rf) were collected, i.e., the ratio of the distance traveled by the substance to be analyzed to the distance traveled through the front of the mobile phase. […] The experiment was repeated (for both BSA-coated and control plates) and the Rf values pooled are the mean of both series of experiments.

[2] = biological target: T1, bovine serum albumin (BSA); test: RP TLC on plates impregnated with bovine serum albumin; assay type: binding; settings: Table S4, RP plate impregnated with 2 mg/mL BSA; pH 7.4 mobile phase
Description: as §1, §2, §3, §4, §5, §6

[3] = biological target: T2, human serum albumin (HSA) (Homo sapiens, UniProt P02768)
plasma protein = settings: Table S1, plasma protein binding given as fraction; ref DrugBank [7]; cited from earlier work
[4] = HPLC on immobilized artificial membrane column (HPLCIAM); assay type: physicochemical; settings: for log k IAM: Table S5, IAM column, pH 7.4; for k IAM: Table S5, retention factor, IAM column, phosphate buffer pH 7.4/acetonitrile 80:20
[5] = Table S1, coded 1/0; ref DrugBank [7]; cited from earlier work
[6] = NP TLC on non-impregnated control plates; assay type: physicochemical; settings: Table S3, non-impregnated NP plate; acetonitrile/acetate buffer pH 7.4/methanol 60:20:20
Protocol: as §2
Normal and reversed phase thin layer chromatography (NP TLC and RP TLC respectively) was performed using silica-gel-coated glass plates. Half of them were covered with 2 mg/mL bovine serum albumin solution and half remained pure.
as §5, §6

[7] = RP TLC on non-impregnated control plates; assay type: physicochemical; settings: Table S4, non-impregnated RP plate; acetonitrile/acetate buffer pH 7.4/methanol 60:20:20
[8] = Milk-to-plasma (M/P) drug concentration ratio obtained in vivo, from literature; parameters: species or system human; settings: Table S1, scale of drug penetration into milk 1-4
[9] = biological target: T2, human serum albumin (HSA); test: in vitro; settings: immobilized hsa column, pH 7.4
[10] = Table S1, milk/plasma drug concentration ratio, in vivo; cited from earlier work
[11] = Table S5, retention factor, HSA column, pH 7.4, 25 degrees Celsius
[12] = human, immobilized hsa column, pH 7.4

T2 sequence (P02768 25-609): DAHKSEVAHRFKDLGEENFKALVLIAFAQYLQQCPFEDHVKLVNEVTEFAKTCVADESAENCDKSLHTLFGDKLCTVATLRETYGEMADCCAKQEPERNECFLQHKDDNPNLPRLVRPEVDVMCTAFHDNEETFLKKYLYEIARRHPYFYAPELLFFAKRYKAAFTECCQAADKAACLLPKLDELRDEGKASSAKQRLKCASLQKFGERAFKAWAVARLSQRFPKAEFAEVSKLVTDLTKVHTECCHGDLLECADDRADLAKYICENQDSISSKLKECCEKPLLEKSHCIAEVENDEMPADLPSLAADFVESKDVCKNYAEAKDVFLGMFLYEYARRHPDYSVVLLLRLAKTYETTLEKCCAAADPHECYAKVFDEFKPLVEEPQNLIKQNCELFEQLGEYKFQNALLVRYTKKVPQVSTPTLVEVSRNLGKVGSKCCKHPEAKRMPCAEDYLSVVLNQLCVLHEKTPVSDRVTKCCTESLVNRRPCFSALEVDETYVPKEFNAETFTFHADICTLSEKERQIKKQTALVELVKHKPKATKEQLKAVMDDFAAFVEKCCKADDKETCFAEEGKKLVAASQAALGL
T1 sequence (P02769 25-607): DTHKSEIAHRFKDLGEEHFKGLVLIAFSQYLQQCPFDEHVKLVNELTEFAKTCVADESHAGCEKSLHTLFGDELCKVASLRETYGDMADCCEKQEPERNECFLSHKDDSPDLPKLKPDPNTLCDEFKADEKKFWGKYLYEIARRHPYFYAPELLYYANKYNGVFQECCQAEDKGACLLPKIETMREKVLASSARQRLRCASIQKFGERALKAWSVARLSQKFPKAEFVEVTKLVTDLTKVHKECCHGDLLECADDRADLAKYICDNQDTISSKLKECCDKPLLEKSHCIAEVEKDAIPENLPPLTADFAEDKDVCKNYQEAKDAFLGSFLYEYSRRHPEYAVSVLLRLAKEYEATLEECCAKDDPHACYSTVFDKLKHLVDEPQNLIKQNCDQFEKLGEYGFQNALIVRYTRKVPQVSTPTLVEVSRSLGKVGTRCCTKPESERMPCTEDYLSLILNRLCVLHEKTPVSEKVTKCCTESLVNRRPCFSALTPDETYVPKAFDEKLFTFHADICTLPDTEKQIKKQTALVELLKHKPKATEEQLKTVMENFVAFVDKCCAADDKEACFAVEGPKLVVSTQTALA

Row | SMILES | NP (Rf, BSA-impregnated NP plate) [1] | RP (Rf, BSA-impregnated RP plate) [2] | k HSA [3, 11] | PB (plasma protein) | log k IAM [4] | k IAM [4] | CNS+/- [5] | CNP (Rf, control NP plate) [6] | CRP (Rf, control RP plate) [7] | M/P code [8] | chromatographic logD [9] | M/P [10] | log k HSA ([3]; Table S5, HSA, pH 7.4) | log k HSA [3, 12] | k HSA ([3]; pH 7.4)
1 | CC(=O)Oc1ccccc1C(=O)O [acetylsalicylic acid] | 0.90 | 0.99 | 0.31 | 0.995 | -1.52 | 0.03 | 1 | 0.89 | 0.98 | 3 (3 range 0.81–1.20—possibly over the safety limit) | -0.51 | 1.08 |  |  | 
2 | CC1(C)S[C@@H]2[C@H](NC(=O)[C@H](N)c3ccc(O)cc3)C(=O)N2[C@H]1C(=O)O [amoxilcillin] | 0.68 | 0.98 | 0.94 | 0.2 | -1.32 | 0.05 | 0 | 0.68 | 0.99 | 1 (Code 1 corresponds to drugs with an M/P value <0.40—completely safe) |  | 0.028 | -0.03 |  | 
3 | CC(C)NCC(O)COc1ccc(CCOCC2CC2)cc1 (stereo not shown) [betaxolol] | 0.65 | 0.25 | 1.59 | 0.5 |  |  | 0 | 0.66 | 0.27 | 4 (4 is M/P >1.20—dangerous) |  | 2.75 |  | 0.20 | 
4 | Cc1ccc(-c2cc(C(F)(F)F)nn2-c2ccc(S(N)(=O)=O)cc2)cc1 [celecoxib] | 0.99 | 0.75 | 13.42 | 0.97 | 1.70 | 50.01 | 1 | 0.98 | 0.75 | 2 (2 corresponds to the range of 0.40–0.80—at the safety limit) |  | 0.41 | 1.13 |  | 
5 | COc1cc(N)c(Cl)cc1C(=O)NC1CCN(CCCOc2ccc(F)cc2)CC1OC (stereo not shown) [cisapride] | 0.63 | 0.62 | 4.88 | 0.975 | 1.76 | 57.99 | 1 | 0.64 | 0.65 | 1 (Code 1 corresponds to drugs with an M/P value <0.40—completely safe) |  | 0.045 |  | 0.69 | 
6 | CC[C@H]1OC(=O)[C@H](C)[C@@H](O[C@H]2C[C@@](C)(OC)[C@@H](O)[C@H](C)O2)[C@H](C)[C@@H](O[C@@H]2O[C@H](C)C[C@H](N(C)C)[C@H]2O)[C@](C)(OC)C[C@@H](C)C(=O)[C@H](C)[C@@H](O)[C@]1(C)O [clarithromycin] | 0.99 | 0.78 | 0.82 |  | -1.02 | 0.10 | 0 | 0.99 | 0.83 | 1 (Code 1 corresponds to drugs with an M/P value <0.40—completely safe) |  | 0.25 | -0.09 |  | 
7 | O=C(O)C1N=C(c2ccccc2)c2cc(Cl)ccc2NC1=O (stereo not shown) [clorazepate] | 0.94 | 0.81 |  | 0.975 | 0.69 | 4.88 |  | 0.94 | 0.81 | 1 (Code 1 corresponds to drugs with an M/P value <0.40—completely safe) | 0.6 | 0.2 |  |  | 3.99
8 | C[C@H]1c2cccc(O)c2C(=O)C2=C(O)[C@]3(O)C(=O)C(C(N)=O)=C(O)[C@@H](N(C)C)[C@@H]3[C@@H](O)[C@@H]21 [doxycycline] | 0.05 | 0.09 | 1.68 | 0.9 | 0.24 | 1.76 | 0 | 0.06 | 0.08 | 1 (Code 1 corresponds to drugs with an M/P value <0.40—completely safe) | 0.23 | 0.34 |  |  | 
9 | Fc1ccc([C@@H]2CCNC[C@H]2COc2ccc3c(c2)OCO3)cc1 [paroxetine] | 0.56 | 0.67 | 5.96 | 0.94 | 2.06 | 115.77 | 1 | 0.55 | 0.60 | 2 (2 corresponds to the range of 0.40–0.80—at the safety limit) |  | 0.675 | 0.78 |  | 
10 | CN1C(C(=O)Nc2ccccn2)=C(O)c2ccccc2S1(=O)=O [piroxicam] | 0.98 | 0.60 | 32.92 |  | -0.79 | 0.16 | 0 | 0.98 | 0.58 | 1 (Code 1 corresponds to drugs with an M/P value <0.40—completely safe) | 1.52 | 0.02 |  |  | 
11 | CCOC(=O)[C@H](CCc1ccccc1)N[C@@H](C)C(=O)N1Cc2ccccc2C[C@H]1C(=O)O [quinapril] | 0.44 | 0.56 | 3.1 | 0.97 | 0.09 | 1.22 | 0 | 0.44 | 0.57 | 1 (Code 1 corresponds to drugs with an M/P value <0.40—completely safe) |  | 0.12 |  | 0.49 | 
12 | CN1CCN(C(=O)OC2c3nccnc3C(=O)N2c2ccc(Cl)cn2)CC1 (stereo not shown) [zopiclone] | 0.96 | 0.83 |  | 0.45 | -0.04 | 0.91 |  | 0.96 | 0.84 | 2 (2 corresponds to the range of 0.40–0.80—at the safety limit) | -0.12 | 0.51 |  |  | 0.76
13 | OCCN1CCN(CC/C=C2/c3ccccc3Sc3ccc(Cl)cc32)CC1 [zuclopenthixol] | 0.47 |  | 16.18 | 0.985 | 1.69 | 48.73 | 1 | 0.47 |  | 1 (Code 1 corresponds to drugs with an M/P value <0.40—completely safe) | 1.21 | 0.37 |  |  | 
